From paper PMC10571957, “αV-Integrin-Dependent Inhibition of Glioblastoma Cell Migration, Invasion and Vasculogenic Mimicry by the uPAcyclin Decapeptide” (Cancers, 2023)
“And” between values parts separate entries of the source, which are not always exact repeats. Equal entries are not always repeated.

Legend:
[1] = tested on: U87-MG cells (αV integrin); assay: FITC-uPAcyclin receptor binding/competition, U87-MG; parameters: species or system human; settings: for FITC-uPAcyclin binding, single values: T-test sheet, single replicates of all EXPTs
Method: The U87-MG, U251-MG, and U138-MG cell lines were harvested and acid-treated, as described. Then, 2 × 10^6 cells/sample were exposed for 30 min at 4 °C to uPAcyclin or S-uPAcyclin at the indicated concentrations, or with the following antibodies: VNR147 monoclonal anti-αV integrin (Chemicon Int. Inc., Temecula, CA, USA), polyclonal anti-αV (Millipore, Burlington, MA, USA), monoclonal anti-α2 (Chemicon Int. Inc., Temecula, CA, USA), polyclonal anti-actin (Sigma-Aldrich, St. Louis, MO, USA), monoclonal anti-GAPDH (Abcam, Cambridge, UK), and purified vitronectin (VN, Corning, Glendale, AZ, USA). The cells were subsequently incubated with 50 nM FITC-uPAcyclin for 2 h at 4 °C, as described. At the end of incubation, the cells were washed and the cell surface-associated fluorescence was determined using a fluorimeter (VICTOR^TM X3-PerkinElmer, Waltham, MA, USA). All binding assays were performed three times, with duplicate samples, and analyzed as described in Section 2.11.
Figure 2 αV expression of U87-MG, U251-MG, and U138-MG GBM cells and specific binding of FITC-uPAcyclin. (A) U87-MG, U251-MG, U138-MG, HEK-293, and HEK-293/αV total cell lysates were subjected to Western blotting and probed using polyclonal anti-αV or polyclonal anti-actin as loading control. (B) A total of 2 × 10^6 U87-MG, U251-MG, U138-MG, HEK-293/αV, or HEK-293 cells were pre-incubated for 30 min at 4 °C with 500 nM uPAcyclin and further exposed to 50 nM FITC-uPAcyclin for 2 h at 4 °C. At the end of the incubation, the unbound material was washed and cell-associated FITC-uPAcyclin was quantitated by a fluorimeter. The net value of cell-surface-associated fluorescence, corresponding to the specific binding, is shown. (C) A total of 2 × 10^6 U87-MG, U251-MG, and U138-MG cells were pre-incubated for 30 min at 4 °C with increasing concentrations of unlabeled uPAcyclin and then assayed for binding of FITC-uPAcyclin, for 2 h at 4 °C. Cell-surface-associated fluorescence, as percentage of the samples […], is shown. (D) U87-MG cells were pre-incubated with uPAcyclin (1 pM, 100 nM), scrambled uPAcyclin (S-uPAcyclin, 1 pM and 100 nM)), vitronectin (200 µM), anti-αv polyclonal (anti-αV Pclonal, 5 µg/mL) or monoclonal (anti-αV MoAb, 5 µg/mL) or anti-α2 monoclonal (anti-α2 MoAb, 1 µg/mL), polyclonal anti-actin, and monoclonal anti GAPDH. Then, cells were treated as in B (* p-value < 0.05; *** p-value < 0.001).

[2] = tested on: U87-MG cells; assay: Boyden chamber migration (chemotaxis), U87-MG; format: cell-based, human; settings: for % of the basal: sheet all data, Average all expts; for % of basal, average / % of basal / cells n°/field / % of basal (T-TEST list): sheet data scrambled; for % of basal, average: Average 2 expts
Method: (§1) The migration and invasion assays were performed using Boyden chambers and 8 µm pore size PVP-free filters coated with 50 µg/mL of collagen type VI (Sigma), as previously described. For the invasion assays, collagen-coated filters were further coated with 50 µg/mL Matrigel^TM (Sigma). Briefly, 11 × 10^4 U87-MG, 4 × 10^4 U251-MG, or 4 × 10^4 U138-MG/sample were pre-treated for 40 min at 37 °C with the indicated effectors. Then, the cells were allowed to migrate for 3 h or to invade for 5 h at 37 °C toward 5% FBS in DMEM/0.1% BSA. At the end of both assays, the cells on the lower filter surface were fixed, stained with haematoxylin, and counted under an optical microscope (Zeiss Axiophot, Carl Zeiss, Milan, Italy) at 20× magnification. The migration and invasion experiments were conducted in triplicate for U87-MG and in duplicate for U251-MG and U138-MG. The migrated or invaded cells were reported as percentage of basal migration or invasion in the presence of DMEM/0.1% BSA, taken as 100%, and analyzed as reported in Section 2.11.
(§2) Figure 3 Inhibition of U87-MG, U251-MG, and U138-MG GBM cellular migration by uPAcyclin. Quantitative analysis of U87-MG (A), U251-MG (B), and U138-MG (C) directional migration. A total of 11 × 10^4 U87-MG/sample or 4 × 10^4 U251-MG or U138-MG/sample were pre-treated for 40 min at 37 °C with uPAcyclin or S-peptide at the indicated concentrations, anti-αV polyclonal (anti-αV Pclonal) or monoclonal (anti-αV MoAb) antibody, or anti-GAPDH, and anti-α2 monoclonal antibody (anti-α2 MoAb), and then assayed in Boyden chambers at 37 °C, either for basal (BSA) or directional 5% FBS-dependent migration for 3 h at 37 °C. At the end of incubation, the filters were processed as described in Methods. Basal migration was taken as 100% and all values were calculated relative to that (* p-value < 0.05; ** p-value < 0.005; *** p-value < 0.001).

[3] = tested on: U251-MG cells; assay: Boyden chamber migration (chemotaxis), U251-MG; format: cell-based, human; settings: for migrated cells n°/field / migration, % of basal / migration, % of basal, average 2 expts / migration, % of basal, average expt 1 / migration, % of basal, average expt 2 / migration, % of basal, T-test list: sheet data scrambled; for migration, % of basal, average 2 expts: mean of 2 expts; for migration, % of basal, average expt 1: mean of expt 1; for migration, % of basal, average expt 2: mean of expt 2; for migration, % of basal, T-test list: single replicates
Method: as §1, §2

[4] = 10pM, Expt n°2, replicate 1 (as labelled)
[5] = 10pM, Expt n°2, replicate 2 (as labelled)
[6] = 1nM, Expt n°2, replicate 1 (as labelled)
[7] = 1nM, Expt n°2, replicate 2 (as labelled)
[8] = 100 nM, 5% FBS, 3 h, expt 1, duplicates
[9] = 100 nM, 5% FBS, 3 h, expt 2, duplicates
[10] = 1 nM, 5% FBS, 3 h, expt 1, duplicates
[11] = 1 nM, 5% FBS, 3 h, expt 2, duplicates

## Ac-K^1P[ESPPEELK^10]-NH2 (sidechain bridge or staple) [uPAcyclin]
[1]; competitor 1 pM
  FITC-uPAcyclin binding, single values: 70 and 77 and 74 and 75
[1]; competitor 100 nM
  FITC-uPAcyclin binding, single values: 38 and 42 and 49 and 44 and 54
[1]; unlabeled uPAcyclin vs FITC-uPAcyclin, U87-MG, 4 °C
  Kdapp: low nanomolar range
[2]; 1 nM, U87-MG, 5% FBS, 3 h
  inhibition of migration: 70–80%
[2]; 100 nM, U87-MG, 5% FBS, 3 h
  migration, in words: below background levels
[2]; 10pM
  % of the basal: 168%
  % of basal, average: 143.5%
[2]; 1nM
  % of the basal: 119%
  % of basal, average: 131%
[2]; 100nM
  % of the basal: 87%
[2]; 10pM, Expt n°1, replicate 1
  % of basal: 133%
  cells n°/field: 14 cells n°/field
[2]; 10pM, Expt n°1, replicate 2
  % of basal: 143%
  cells n°/field: 15 cells n°/field
[2]; [4]
  % of basal: 152%
  cells n°/field: 16 cells n°/field
[2]; [5]
  % of basal: 133%
  cells n°/field: 14 cells n°/field
[2]; 10 pM, T-TEST list value 1
  % of basal (T-TEST list): 143
[2]; 10 pM, T-TEST list value 2
  % of basal (T-TEST list): 152
[2]; 10 pM, T-TEST list value 3
  % of basal (T-TEST list): 133
[2]; 10 pM, T-TEST list value 4
  % of basal (T-TEST list): 143
[2]; 1nM, Expt n°1, replicate 1
  % of basal: 124%
  cells n°/field: 13 cells n°/field
[2]; 1nM, Expt n°1, replicate 2
  % of basal: 124%
  cells n°/field: 13 cells n°/field
[2]; [6]
  % of basal: 143%
  cells n°/field: 15 cells n°/field
[2]; [7]
  % of basal: 171%
  cells n°/field: 18 cells n°/field
[2]; 1 nM, T-TEST list value 1
  % of basal (T-TEST list): 133
[2]; 1 nM, T-TEST list value 2
  % of basal (T-TEST list): 143
[2]; 1 nM, T-TEST list value 3
  % of basal (T-TEST list): 124
[2]; 1 nM, T-TEST list value 4
  % of basal (T-TEST list): 124
[3]; 1 nM, U251-MG, 5% FBS, 3 h
  inhibition of migration: 70–80%
[3]; 1 nM
  migration, % of the basal, average all expts: 99%
[3]; 100 nM, U251-MG, 5% FBS, 3 h
  migration, in words: below background levels
[3]; 100 nM
  migration, % of the basal, average all expts: 83%
  migration, % of basal, average 2 expts: 99.2955%
  migration, % of basal, average expt 1: 89.5%
  migration, % of basal, average expt 2: 109.091%
  migration, % of basal, T-test list: 86 and 93 and 95
[3]; [8]
  migrated cells n°/field: 12 cells n°/field and 13 cells n°/field
  migration, % of basal: 86% and 93%
[3]; [9]
  migrated cells n°/field: 27 cells n°/field and 21 cells n°/field
  migration, % of basal: 123% and 95%

## Ac-PS[EELKPEPK]-NH2 (sidechain bridge or staple) [S-uPAcyclin, scrambled control peptide]
[1]; U87-MG, S-uPAcyclin 1 pM and 100 nM, vitronectin 200 µM, anti-αV 5 µg/mL, anti-α2 1 µg/mL
  competition with FITC-uPAcyclin binding, in words: retains very little binding ability
[1]; competitor 1 pM, listed as Scrambled uPAcyclin
  FITC-uPAcyclin binding, single values: 85 and 88 and 80 and 75
[1]; competitor 100 nM, listed as Scrambled uPAcyclin
  FITC-uPAcyclin binding, single values: 74 and 80 and 82 and 75
[2]; 10pM
  % of the basal: 169%
[2]; 1nM
  % of the basal: 183%
[2]; 100nM
  % of the basal: 160%
[2]; 10 pM, T-TEST list value 1
  % of basal (T-TEST list): 171
[2]; 10 pM, T-TEST list value 2
  % of basal (T-TEST list): 152
[2]; 10 pM, T-TEST list value 3
  % of basal (T-TEST list): 191
[2]; 10 pM, T-TEST list value 4
  % of basal (T-TEST list): 162
[2]; 1 nM, T-TEST list value 1
  % of basal (T-TEST list): 171
[2]; 1 nM, T-TEST list value 2
  % of basal (T-TEST list): 190
[2]; 1 nM, T-TEST list value 3
  % of basal (T-TEST list): 191
[2]; 1 nM, T-TEST list value 4
  % of basal (T-TEST list): 181
[2]; 100nM, T-TEST list value 2
  % of basal (T-TEST list): 158
[2]; 100nM, T-TEST list value 3
  % of basal (T-TEST list): 158
[2]; 100nM, T-TEST list value 4
  % of basal (T-TEST list): 162
[2]; up to 100 nM, U87-MG (Figure 3A)
  effect on migration, in words: ineffective up to 100 nM
[3]; 1 nM
  migration, % of the basal, average all expts: 176%
  migration, % of basal, average 2 expts: 176.045%
  migration, % of basal, average expt 1: 193%
  migration, % of basal, average expt 2: 159.091%
  migration, % of basal, T-test list: 200 and 186 and 145 and 172
[3]; [10]
  migrated cells n°/field: 28 cells n°/field and 26 cells n°/field
  migration, % of basal: 200% and 186%
[3]; [11]
  migrated cells n°/field: 32 cells n°/field and 38 cells n°/field
  migration, % of basal: 145% and 172%
[3]; 100 nM
  migration, % of the basal, average all expts: 157%
  migration, % of basal, average 2 expts: 157.432%
  migration, % of basal, average expt 1: 153.5%
  migration, % of basal, average expt 2: 161.364%
  migration, % of basal, T-test list: 164 and 143 and 159
[3]; [8]
  migrated cells n°/field: 23 cells n°/field and 20 cells n°/field
  migration, % of basal: 164% and 143%
[3]; [9]
  migrated cells n°/field: 35 cells n°/field and 36 cells n°/field
  migration, % of basal: 159% and 163%
